Measurements from patent publication US9139593B2, “Azetidine compounds, compositions and methods of use” (Hoffman-La Roche Inc., priority 2011, dated 2015).

Target: Human Soluble Epoxide Hydrolase (Homo sapiens (Human), UniProt P34913)
Test: Human Soluble Epoxide Hydrolase Enzyme Assay
Assay type: biochemical
Conditions: resorufin epoxide substrate, fluorescence, room temperature, triplicates
Experimental: Human Soluble Epoxide Hydrolase Enzyme Assay
Test compounds (1.6 mM stock in DMSO) were diluted 3 fold in series in DMSO and 0.8 microliters per well were added into 384-well NBS microplates (Corning). Resorufin epoxide substrate (20 uM stock in DMSO) was diluted to 5 μM with Assay Buffer (25 mM bis-Tris-HCl, pH 7.0, 1 mM DTT and 0.2 mg/ml BSA) and 8 microliters per well were added to the microplates. Thirty two microliters per well of 3.6 nM soluble epoxide hydrolase in Assay Buffer was then added. The samples were incubated at room temperature and assay signals were monitored by reading excitation at 530 nm and emission fluorescence at 590 nm on a PlateVision (Zeiss) reader every 2 minutes for 8 times. The reaction rate, % inhibition and IC50 values were calculated using AssayAnalyzer and Condoseo software (Genedata AG, Basel, Switzerland).
All the experiments were done in triplicates.
The compounds of the present invention were tested for their capacity to inhibit sEH activity.

Chain of Human Soluble Epoxide Hydrolase (P34913 whole entry): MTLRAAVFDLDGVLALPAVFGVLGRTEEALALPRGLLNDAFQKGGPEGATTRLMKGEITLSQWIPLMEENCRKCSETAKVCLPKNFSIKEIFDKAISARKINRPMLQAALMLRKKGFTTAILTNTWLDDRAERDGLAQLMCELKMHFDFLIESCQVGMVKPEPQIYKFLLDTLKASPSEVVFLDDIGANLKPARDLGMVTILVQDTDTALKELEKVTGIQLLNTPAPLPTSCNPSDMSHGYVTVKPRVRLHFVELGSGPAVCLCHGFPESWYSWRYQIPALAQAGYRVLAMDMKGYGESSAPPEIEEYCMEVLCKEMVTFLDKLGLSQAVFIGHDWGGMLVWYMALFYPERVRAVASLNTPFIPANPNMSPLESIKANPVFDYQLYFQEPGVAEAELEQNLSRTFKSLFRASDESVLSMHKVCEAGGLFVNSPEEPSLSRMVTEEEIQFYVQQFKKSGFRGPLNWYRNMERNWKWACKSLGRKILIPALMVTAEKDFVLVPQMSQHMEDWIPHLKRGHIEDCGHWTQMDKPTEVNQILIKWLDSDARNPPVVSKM

| Compound | IC50 |
| --- | --- |
| O=C(NCc1ccc(Cl)cc1Cl)N1CC2CN(C(=O)c3ccccc3)C2C1 (racemic) [Example 18, rac-6-Benzoyl-3,6-diaza-bicyclo[3.2.0]heptane-3-carboxylic acid 2,4-dichloro-benzylamide] | 0.183 µM |
| O=C(NCc1ccc(Cl)cc1Cl)N1CC2CN(S(=O)(=O)c3ccccc3)C2C1 (racemic) [Example 19, rac-6-Benzenesulfonyl-3,6-diaza-bicyclo[3.2.0]heptane-3-carboxylic acid 2,4-dichloro-benzylamide] | 0.238 µM |
| O=C(NCc1ccc(Cl)cc1Cl)N1CC2CN(c3ncccn3)C2C1 (racemic) [Example 20, rac-6-Pyrimidin-2-yl-3,6-diaza-bicyclo[3.2.0]heptane-3-carboxylic acid 2,4-dichloro-benzylamide] | 0.361 µM |
| O=C(O)c1ccc(N2CC3CN(C(=O)NCc4ccc(Cl)cc4Cl)CC32)cc1 (racemic) [Example 21, rac-4-[3-(2,4-Dichloro-benzylcarbamoyl)-3,6-diaza-bicyclo[3.2.0]hept-6-yl]-benzoic acid] | 0.351 µM |
| O=C(NCc1ccc(Cl)cc1Cl)N1CC2(C1)CN(C(=O)c1ccccc1)C2 [Example 1, 6-Benzoyl-2,6-diaza-spiro[3.3]heptane-2-carboxylic acid 2,4-dichloro-benzylamide] | 0.241 µM |
| O=C(O)c1ccc(N2CC3(CN(C(=O)NCc4ccc(Cl)cc4Cl)C3)C2)cc1 [Example 2, 4-[6-(2,4-Dichloro-benzylcarbamoyl)-2,6-diaza-spiro[3.3]hept-2-yl]-benzoic acid] | 1.26 µM |
| O=C(NCc1ccc(Cl)cc1Cl)N1CC2(C1)CN(c1ncccn1)C2 [Example 4, 6-Pyrimidin-2-yl-2,6-diaza-spiro[3.3]heptane-2-carboxylic acid 2,4-dichloro-benzylamide] | 2.32 µM |
| O=C(NCc1ccc(Cl)cc1Cl)N1CC2(CCN2S(=O)(=O)c2ccc(F)cc2)C1 [Example 5, N-(2,4-Dichlorobenzyl)-1-(4-fluorophenylsulfonyl)-1,6-diazaspiro[3.3]heptane-6-carboxamide] | 0.284 µM |
| O=C(NCc1ccc(Cl)cc1Cl)N1CCC12CN(S(=O)(=O)c1ccc(Cl)cc1)C2 [Example 6, 6-(4-Chlorophenylsulfonyl)-N-(2,4-dichlorobenzyl)-1,6-diazaspiro[3.3]heptane-1-carboxamide] | 0.321 µM |
| O=C(NCc1ccc(Cl)cc1Cl)N1CC2(CCN2c2ncccn2)C1 [Example 7, N-(2,4-Dichlorobenzyl)-1-(pyrimidin-2-yl)-1,6-diazaspiro[3.3]heptane-6-carboxamide] | 0.125 µM |
| O=C(NCCCc1ccccc1)N1CC2(CCN2Cc2ccccc2)C1 [Example 8, Benzyl-1,6-diaza-spiro[3.3]heptane-6-carboxylic acid (3-phenyl-propyl)-amide] | 1.98 µM |
| O=C(NCCCc1ccccc1)N1CC2(CCN2S(=O)(=O)c2ccc(Cl)cc2)C1 [Example 9, 1-(4-Chloro-benzenesulfonyl)-1,6-diaza-spiro[3.3]heptane-6-carboxylic acid (3-phenyl-propyl)-amide] | 1.99 µM |
| O=C(NC12CC3CC(CC(C3)C1)C2)N1CC2(CCN2S(=O)(=O)c2ccc(Cl)cc2)C1 [Example 10, 1-(4-Chloro-benzenesulfonyl)-1,6-diaza-spiro[3.3]heptane-6-carboxylic acid adamantan-1-ylamide] | 2.55 µM |
| O=C(NCc1ccc(Cl)cc1Cl)N1CC2(CCN2S(=O)(=O)c2ccc(Cl)cc2)C1 [Example 11, 1-(4-Chloro-benzenesulfonyl)-1,6-diaza-spiro[3.3]heptane-6-carboxylic acid 2,4-dichloro-benzylamide] | 0.64 µM |
| O=C(NCc1ccccc1OC(F)(F)F)N1CC2(CCN2S(=O)(=O)c2ccc(Cl)cc2)C1 [Example 12, 1-(4-Chloro-benzenesulfonyl)-1,6-diaza-spiro[3.3]heptane-6-carboxylic acid 2-trifluoromethoxy-benzylamide] | 0.243 µM |
| O=C(NCCCc1ccccc1)N1CC2(CCN2S(=O)(=O)c2ccccc2C(F)(F)F)C1 [Example 13, 1-(2-trifluoromethyl-benzenesulfonyl)-1,6-diaza-spiro[3.3]heptane-6-carboxylic acid (3-phenyl-propyl)-amide] | 0.476 µM |
| O=C(NCCCc1ccccc1)[C@@H]1CCC12CN(S(=O)(=O)c1ccccc1Cl)C2 [Example 14, (R)-2-(2-Chlorophenylsulfonyl)-N-(3-phenylpropyl)-2-azaspiro[3.3]heptane-5-carboxamide] | 2.79 µM |
| O=C(NCCCc1ccccc1)[C@H]1CCC12CN(S(=O)(=O)c1ccccc1Cl)C2 [Example 15, (S)-2-(2-Chlorophenylsulfonyl)-N-(3-phenylpropyl)-2-azaspiro[3.3]heptane-5-carboxamide] | 0.288 µM |
| O=C(NCc1ccc(Cl)cc1Cl)N[C@@H]1CCC12CN(S(=O)(=O)c1ccc(Cl)cc1)C2 [Example 16, (R)-1-(2-(4-Chlorophenylsulfonyl)-2-azaspiro[3.3]heptan-5-yl)-3-(2,4-dichlorobenzyl)urea] | 2.69 µM |
| O=C(NCc1ccc(Cl)cc1Cl)N[C@H]1CCC12CN(S(=O)(=O)c1ccc(Cl)cc1)C2 [Example 17, (S)-1-(2-(4-Chlorophenylsulfonyl)-2-azaspiro[3.3]heptan-5-yl)-3-(2,4-dichlorobenzyl)urea] | 0.678 µM |
